In patent publication EP0603160A2, “Compositions for in-situ active compound assembly” (SCRIPPS CLINIC AND RESEARCH FOUNDATION, priority 1986, dated 1988):
Read-outs that look alike come from different tables or passages of the source.

Assays:
[1] = tested on: Ox blood erythrocytes; assay: Erythrocyte killing with or without 1% serum, light scattering; assay type: cell-based; details: Bos taurus, 1 h, pH 6.6, 896 µM AOG, Decanal 0µM (Table 4), read-out: % cells killed (0% serum)
[2] = tested on: Ox blood erythrocytes; assay: as above; assay type: cell-based; details: Bos taurus, Erythrocyte, 1 h, pH 6.6; for mortality at 448 µM: Decanal 0, AOG maintained at 448 µM according to the text (Table 4)
Experimental: (§1) Ox blood erythrocytes were incubated for one hour in PBS at pH 6.6 in the presence or absence of 1% serum at 37°C. […] However, at 4-16 µM DIOG, the percentage of cells killed increased from 4.3 to 60.9. On the other hand, in the absence of serum, 7.2.% cells were killed even without the addition of DIOG, and a steady increase in killing occurred as the DIOG concentration increased, reaching 100% of cells killed at 8 µM.
The AOG concentration was maintained at a high level (448 µM) and the decanal concentration varied from 0-16 µM corresponding the previous DIOG concentration range. In this protocol, similar results were obtained for cells incubated in the absence of serum, but in the presence of 1% serum the curve was slightly displaced so that the cells appeared more protected as shown in Table 4.

[3] = tested on: Ox blood erythrocytes; assay: Erythrocyte killing with or without 1% serum, hemoglobin release; assay type: cell-based; details: Bos taurus, 1 h, read-out: cell killing measured by hemaglobin release, 1% Serum
Experimental: as §1

[4] = tested on: S cerevisiae; assay: Yeast growth in YPD medium with AOG and decanal; assay type: cell-based; details: 24 hours
Experimental: The effect of the combination of AOG and decanal on yeast was also determined. S cerevisiae in YPD medium at cell densities of 10⁵-10⁶ cell/ml used as starting concentrations. When no reagents were added to the medium, the cell density increased about 90 fold in 24 hours. […] When 10 µg/ml decanal plus 44 µg/ml AOG were added in combination, all yeast died after 24 hours.

[5] = tested on: human erythrocytes; assay: Erythrocyte lysis (light scattering, hemoglobin release, cell counts); assay type: cell-based; details: for time for which erythrocytes are stable: solutions containing either DAPG or CHD alone
Experimental: The putative product shown in Reaction Scheme 1 is evidently cytotoxic, since a suspension of human erythrocytes in a solution containing both CHD and DAPG in phosphate buffered saline is 95% lysed or aggregated within 1-14 hours under physiological conditions (the precise time depending on the concentrations) whereas erythrocytes are stable for at least 24 hours in plain PBS, and also in solutions containing either DAPG or CHD alone. In addition, when erythrocytes are incubated with mixtures of CHD and DAPG, a substantial induction period is observed during which no lysis or aggregation occurs, due to the time lag in formation of the cytotoxic material. Whether lysis or aggregation results depends on relative concentration; excess CHD results in lysis, equimolar concentrations in aggregation. The cytotoxicity may be due to the formation of the polycation, analogous to the known antitumor activity of poly-(L-lysine); Arnold, L. J. Proc. Natl Acad Sci (supra).
For erythrocytes blood was collected and stored with KEDTA at 4°C and erythrocytes prepared within 48 hours by centrifuging three times in phosphate-buffered saline (PBS, pH 7.4). Suspensions containing 3 x 10⁷ cells/ml were prepared in PBS containing 1% EtOH, but no […] cations, and incubated at 37°C with the compounds or mixtures to be tested.
On the other hand, while a mixture of 28 µM AOG and 28 µM decanal (reagent grade, Aldrich Chemical Co.) results in less than 10% lysis within the same 20 minute time frame, as the time of incubation increases, lysis increases also, as indicated by hemoglobin release measured by (1) light absorption of the supernatant at 400 nm. (2) decrease of light scattering by the cells at 700 nm, and (3) direct cell counts using a microscope. […] Suspensions of 3.5 x 10⁷ cells/ml prepared as above in PBS (1% EtOH, no divalent cations, pH 7.4) were incubated at 37°C, and cell lysis was followed by observing the decrease in absorbance at 700 nm. For 0% lysis, A₇₀₀ is 1.0; 0.2 for 100% lysis).
The curves were calculated using a nonlinear least squares fitting algorithm (Arc, H, et al, Statistical Methods (1970) Harper & Row, pp. 100-111) and based on a modified Hill equation (Cantor, C.R. et al, supra) wherein percent hemolysis is calculated as 100% divided by (1+(K/C))^α [formula] . In this equation, K is the median effect concentration, C is the concentration of DIOG (or of decanal and AOG), and α is the Hill constant.

[6] = tested on: HeLa cells; assay: HeLa cell cytotoxicity, trypan blue exclusion; assay type: cell-based, human; details: for percentage of cells intact: 400 µM, each alone, two hours, Figure 5a; for HeLa cell toxicity: AOG or dodecanedial alone, Figure 5b
Experimental: These cells were grown in suspension in Joklik's median supplemented with calf serum, centrifuged and then taken up into Dulbecco's modified Eagles medium (DMEM) without serum. Cell suspensions containing 2-4 x 10⁶ cell/ml in DMEM containing 1% ethanol were incubated at 37°C, with or without decanal. AOG, or combinations thereof. Cell membrane damage was measured by hand counting of cells using trypan blue exclusion as the criterion.

[7] = tested on: Monilinia sp; assay: Fungal growth on YPD medium; assay type: cell-based; details: 2 mM of either reagent alone
Experimental: Similar results are obtained using Candida albicans, a human infective agent, as the target organism. […] Also, the growth of Monilinia sp, the causal agent in peach brown rot, is inhibited by the combination of the foregoing reagents, but not by either individually. No growth is observed after four days on YPD medium when 250 µM each of the pyridine-2-carboxaldehyde and 2-hydrazinopyridine are included.

[8] = tested on: S. cerevisiae YP52; assay: Growth inhibition of yeast by PC and HP in YPD medium, roller drum; assay type: cell-based; details: each alone, concentrations below 2 mM, 20 hours at 30°C in YPD medium
Experimental: Pyridine-2-carboxaldehyde (PC) and 2-hydrazino-pyridine (HP) are each alone nontoxic to S. cerevisiae YP52 yeast at concentrations below 2 mM when provided over 20 hours at 30°C in YPD medium in a roller drum. However, when supplied together, these compounds are capable of inhibiting the growth of S. cerevisiae YP52 at 30 °C in YPD. When placed together in the medium at concentrations of 1 mM + 1 mM and at 0.5 mM + 0.5 mM. substantial inhibition occurs. The adduct. pyridino-2-carboxaldehyde (2-pyridyl hydrazone) (PCPH) of the formula: [drawing 25] is a chelator and has a structural similarity to 2,2': 6',2'' terpyridine which is a known cytotoxin (McFadyen et al, J Med Chem (1985) 28:1113-1116). The second order rate constant for this reaction is 2 l/mol-sec at 37 °C, pH6, in phosphate-buffered saline.

[9] = tested on: S. typhimurium strain 14028R; assay: Suspension culture CFU at pH 5 versus pH 7.4; assay type: cell-based; details: NFZ alone at 10 µM; 20 hours at 37°C in PBS, 1% DMSO
Experimental: This selectivity was also shown in suspension cultures when S. typhimurium strain 14028R was incubated for 20 hours at 37°C in PBS at either pH 5 or pH 7.4 containing 1% DMSO. When no drugs were added, the culture contained 8 x 10⁶ colony forming units (CFU)/ml for pH 5 and 1.5 x 10⁷ CFU/ml for pH 7.4. The self assembling drugs tested in this instance were semicarbazide (SC), […] (NFA) and their reaction product nitrofurazone (NFZ). Either the […] product, or mixtures of various concentrations of the precursors NC + NA were added after inoculation of the medium. While the maximum toxic selectivity (the ratio of CFU/ml at pH 7.4 as compared to CFU/ml at pH 5) observed for, NFZ alone, at 10 µM was about 100, a mixture of 1500 µM SC + 7 µM NFA gave a toxic selectivity ratio of over 8000.

[10] = tested on: S. typhimurium; assay: Filter disk growth inhibition on agar LB plates at pH 7.4 and pH 5; assay type: cell-based, Salmonella typhimurium; details: 20 nanomoles on filter disk
Text: The formation of the foregoing chelate is also effective in inhibiting the growth of Salmonella typhimurium. This inhibition can be tested using agar disks or in culture suspension. The effect of the formation of chelate can be studied in this regard by conducting the experiments at pH 5 and pH 7.4; at pH 5 the formation of the chelate is encouraged while at […] the reaction rate is much slower.
The inhibition was spread between the disks rather than circling each disk as was the case for the PCPH inhibition. Thus, control of pH is a selective factor in controlling the self-assembly of the cytotoxic chelator.

[11] = tested on: Erythrocytes; assay: Antidote to self assembly, erythrocyte lysis; assay type: cell-based
Experimental: In this example, cyclohexanone is used as an antidote to prevent the assembly of AOG plus decanal to produce the biologically active agent DIOG, which was described in a previous example. Erythrocytes, prepared as above, were exposed to 20 µM AOG plus 20 µM decanal.

[12] = J Pharm Sci (1971) 60:1128-1131; cited from earlier work
[13] = tested on: some tumors; details: on a weight basis; Arnold et al, Proc Natl Acad Sci USA (1979); cited from earlier work

Molecule: CCCCCCCCNC(=N)NN [AOG, N-amino-N'-1-octyl guanidine]
- mortality at 896 µM [1]: 6.4%
- mortality at 896 µM ([2]; 896 µM AOG, Decanal 0µM (Table 4), read-out: % cells killed (1% serum)): 1.3%
- mortality at 448 µM ([2]; read-out: % cells killed (0% serum)): 0%
- mortality at 448 µM ([2]; read-out: % cells killed (1% serum)): 0%
- hemolysis at 896 µM ([3]; pH 6.6, 896 µM AOG, Decanal Concentration 0 (Table 5)): 0%
- hemolysis at 448 µM ([3]; pH 6.6, Decanal Concentration 0, 448 µM AOG according to the text (Table 5), comma separates duplicates): 0%
- increase in cell density ([4]; 88 µg/ml AOG): threefold increase
- hemolysis at 28 µM ([5]; Homo sapiens, Erythrocyte, 400 min, pH 7.4, 28 µM, 100 µM or 200 µM AOG alone, after more than 400 minutes, Figure 2): < 5%
- lysis ([5]; either alone at 100 µM): did not result in any observable lysis
- percentage of cells intact [6]: considerably less dramatic decreases
- HeLa cell toxicity [6]: neither is very toxic alone

Molecule: O=C1CCC(=O)CC1 [CHD, cyclohexane-1,4-dione]
- hemolysis at 60000 µM ([5]; Homo sapiens, Erythrocyte, pH 7.4, 60 mM CHD alone, after 24 hours): 18%
- time for which erythrocytes are stable [5]: at least 24 hours

Molecule: NNC(=Nc1ccccc1)NN [DAPG, 1,2-diamino-3-phenyl guanididium iodide]
- hemolysis at 3000 µM ([5]; Homo sapiens, Erythrocyte, pH 7.4, 3 mM DAPG alone, after 24 hours): 18%
- time for which erythrocytes are stable [5]: at least 24 hours

Molecule: O=CCCCCCCCCC=O [DDD, decanedialdehyde, CHO(CH₂)₈CHO]
- lysis ([5]; either alone at 100 µM): did not result in any observable lysis

Molecule: NNc1ccccn1 [HP, 2-hydrazino-pyridine]
- growth of Monilinia sp [7]: substantial growth
- toxicity to S. cerevisiae YP52 [8]: nontoxic

Molecule: NC(=O)N/N=C/c1ccc([N+](=O)[O-])o1 [NFZ, nitrofurazone]
- maximum toxic selectivity (the ratio of CFU/ml at pH 7.4 as compared to CFU/ml at pH 5) [9]: about 100

Molecule: O=Cc1ccccn1 [PC, Pyridine-2-carboxaldehyde]
- growth of Monilinia sp [7]: substantial growth
- toxicity to S. cerevisiae YP52 [8]: nontoxic

Molecule: C(=NNc1ccccn1)c1ccccn1 [PCPH, pyridino-2-carboxaldehyde (2-pyridyl hydrazone)]
- growth inhibition of S. typhimurium ([10]; pH 5): inhibited growth
- growth inhibition of S. typhimurium ([10]; pH 7.4): inhibited growth

Molecule: O=C1CCCCC1 [cyclohexanone]
- lysis ([11]; 20 mM cyclohexanone plus 10 µM AOG alone, no decanal): do not give lysis
- lysis ([11]; cells first exposed to 20 µM AOG for 2 hours, then 20 µM decanal and 20 mM cyclohexanone): Extensive lysis
- lysis ([11]; pretreatment 2 hours with 20 mM cyclohexanone alone, then 20 µM AOG plus 20 µM decanal): extensive lysis
- lysis ([11]; pretreatment 2 hours with 20 mM cyclohexanone plus 20 µM AOG, then 20 µM decanal added): only slow lysis

Molecule: CCCCCCCCCC=O [decanal]
- increase in cell density ([4]; 20 µg/ml decanal): 11 fold
- lysis ([5]; 28 µM or 80 µM decanal alone, after more than 400 minutes, Figure 2): less than 5%
- percentage of cells intact [6]: considerably less dramatic decreases

Molecule: O=CCCCCCCCCCCC=O [dodecanedial]
- HeLa cell toxicity [6]: neither is very toxic alone

Molecule: CN(Cc1cnc2nc(N)nc(N)c2n1)c1ccc(C(=O)N[C@@H](CCC(=O)O)C(=O)O)cc1 [methotrexate]
- half-life of the drug in serum [12]: about 2 hours

Molecule: poly-(L-lysine) [poly-(L-lysine) of Mr 3 kd]
- toxicity relative to poly-(L-lysine) having Mr of 70 kd [13]: less than 1/20
